Patent US20230293495A1, “PHARMACEUTICAL FORMULATIONS FOR TREATING DISEASES MEDIATED BY KDM1A” (Imago Biosciences, Inc., priority 2020, published 2023)

Columns and labels:
KDM1A = KDM1A (Homo sapiens, UniProt O60341); test: Inhibition of KDM1A; assay type: biochemical
[1] = Excipient compatibility study: binary mixtures of Compound B and excipient in open vials, assay and related substances (RS); assay type: physicochemical; settings: for RS-1 (related substance): in %; for Total related substances: in % (unit assumed)
Protocol: Commonly used excipients for oral solid dosage formulations were evaluated for this study including fillers, binders, disintegrants, glidants, lubricants and organic acid stabilizers.
Briefly, each excipient and API were individually weighed and filled in vials, followed by the addition of glass beads. The samples were closed, vortexed, and refrigerated at 2 to 8° C. prior to initiation of study as the sample preparation was executed over a period of 10 days. All vials were removed from the refrigerator and allowed to equilibrate to room temperature, then opened, and stored at the designated storage conditions at the same t=0.

Row | SMILES | Inhibition of KDM1A, in words (KDM1A) | % LC (assay) ([1]; 1 week, 50° C./11% RH) | RS-1 (related substance) ([1]; 1 week, 50° C./11% RH) | Total related substances ([1]; 1 week, 50° C./11% RH) | % LC (assay) ([1]; 1 week, 50° C./75% RH) | Related substance RRT 1.081 ([1]; 1 week, 50° C./75% RH) | RS-1 (related substance) ([1]; 1 week, 50° C./75% RH) | Total related substances ([1]; 1 week, 50° C./75% RH) | % LC (assay) ([1]; 2 weeks, 50° C./11% RH) | RS-1 (related substance) ([1]; 2 weeks, 50° C./11% RH) | Total related substances ([1]; 2 weeks, 50° C./11% RH) | % LC (assay) ([1]; 2 weeks, 50° C./75% RH) | Related substance RRT 1.081 ([1]; 2 weeks, 50° C./75% RH) | RS-1 (related substance) ([1]; 2 weeks, 50° C./75% RH) | Total related substances ([1]; 2 weeks, 50° C./75% RH) | % LC (assay) ([1]; week 0) | Related substance RRT 1.081 ([1]; week 0) | RS-1 (related substance) ([1]; week 0) | Total related substances ([1]; week 0)
1 | CN1CCN(C(=O)[C@H](CCCN[C@@H]2C[C@H]2c2ccc(F)cc2)NC(=O)c2ccc(-n3ccnn3)cc2)CC1 [Compound A, N—((S)-5-((1R,2S)-2-(4-fluorophenyl)cyclopropylamino)-1-(4-methylpiperazin-1-yl)-1-oxopentan-2-yl)-4-(1H-1,2,3-triazol-1-yl)benzamide] | has shown activity for the inhibition of KDM1A |  |  |  |  |  |  |  |  |  |  |  |  |  |  |  |  |  | 
2 | CN1CCN(C(=O)[C@H](CCCN[C@@H]2C[C@H]2c2ccc(F)cc2)NC(=O)c2ccc(-n3ccnn3)cc2)CC1.Cc1ccc(S(=O)(=O)O)cc1 [Compound B, N—((S)-5-((1R,2S)-2-(4-fluorophenyl)cyclopropylamino)-1-(4-methylpiperazin-1-yl)-1-oxopentan-2-yl)-4-(1H-1,2,3-triazol-1-yl)benzamide ditosylate] | has shown activity for the inhibition of KDM1A | 98.824 % LC | 0.1652 | 0.2245 | 102.663 % LC | 0.0649% | 0.1453 | 0.2102 | 100.211 % LC | 0.3516 | 0.4595 | 101.800 % LC | 0.0715% | 0.3545 | 0.4260 | 102.973 % LC | 0.0589% | 0.0935 | 0.1525
